Where a name gives a salt, the structure may show the parent alone. Each block holds one molecule with its values, some of them ahead of it. Residues, ends and D or L forms follow the SMILES beside them. *: point of attachment. Cbz = O=C(OCc1ccccc1)*
Legend:
NF-κB p65 = NF-κB p65 transcription factor ELISA in TNFα-stimulated HCT-116 cells; assay type: cell-based; conditions: Homo sapiens, HCT-116, 4 h, read-out: inhibition of NF-κB p65 signaling
Description: (§1) The Nrf-2 and NF-κB transcription factors in the nuclear extracts were detected using an Nrf-2 Transcription Assay Kit (Cayman Chemical, # 600590) and NF-κB (p65 and p50) Transcription Factor Assay Kit (Cayman Chemical, # 10007889 and # 10006912). Prior to assay performance, the nuclear extracts were generated using a Nuclear Extraction Kit (Cayman Chemical, # 10009277). The assay was performed according to the manufacturer’s instructions. For all kits, the nuclear extracts were incubated overnight at 4°C. Development was carried out for 15–20 min or until the wells turned medium to dark blue. Five minutes after the stop solution had been added, the absorbance was read at 450 nm using a plate reader.
The proteasome inhibitor MG132 ([Lee and Goldberg, 1998]) was used as a positive control, as proteasomal inhibition leads to stabilization of I-κB and thus inhibits the activation of the NF-κB signaling pathway. We used a MG132 incubation period of 4 h as longer incubations have been described to activate NF-κB signaling ([Lee et al., 2013]).
FIGURE 1 Effects of NFA on the NF-κB p65 and p50 signaling pathway in colorectal cancer cells. […] Incubation for 4 h with the proteasome inhibitor MG132 (1 µM) served as the positive control. […] Values are normalized to protein concentration and unstimulated vehicle control. Data are represented as mean ± SD of (A) n = 3 (DMSO, 16.9.9, 9NOA control of right panel, 18.4.4, 18.6.7, and 18.9.10), n = 4 (all other derivatives) and (B) n = 5. Statistical significance was calculated by one-way analysis of variance (ANOVA) with Bonferroni post-test. *p ≤ 0.03, **p ≤ 0.0021, ***p ≤ 0.0002, ****p ≤ 0.0001 were considered significant versus TNF-α treatment.

Nrf-2 = Nrf-2 induction in HCT-116 cells (Western blot and ELISA); assay type: cell-based, human; conditions: 10 µM, 4 h, HCT-116, Western blot and ELISA
Description: as §1
HCT-116 and A549 cells were washed with 1× PBS, and cell extracts were generated using a Nuclear Extraction Kit (Cayman Chemical, #10009277) according to the manufacturer’s instructions, whereas whole-cell lysates were obtained using SDS lysis buffer (55.5 mM Tris-HCl pH 6.8, 2.2% SDS, 9% glycerol supplemented with protease (cOmplete® Protease Inhibitor Cocktail, Roche, Mannheim, Germany) and phosphatase (PhosStop® Easy Pack, Roche, Mannheim, Germany) inhibitors. Protein concentrations from the nuclear and cytosolic fractions were determined with a bicinchoninic acid (BCA) protein assay kit (Pierce™, Rockford, Illinois, United States). Cytoplasmic and nuclear extracts (100 µg each) and 30 µg whole-cell lysates were diluted in 5× Laemmli loading dye and denatured for 10 min at 95°C, loaded on a 10% SDS polyacrylamide gel, and separated by gel electrophoresis for 15 min at 80 V followed by 60 min at 120 V. The separated proteins were blotted onto a nitrocellulose membrane (Hybond-C Extra, Amersham Biosciences Ltd., UK) using the Mini Trans-Blot® module (Bio-Rad, Hercules, California, United States) for 90 min at 90 V. The membrane was blocked with Odyssey blocking buffer (Li-Cor Biosciences, Bad Homburg, Germany) or 5% milk powder in TBS-T (Tris Buffered Saline with 0.1% Tween) for 1 h at room temperature (RT). The membranes were incubated with the primary antibodies overnight at 4°C, and then with the secondary antibodies for 1 h at RT. The primary antibodies were diluted 1:1,000 and the secondary antibodies were diluted 1:10,000 to 1:20,000. […]
FIGURE 2 Effects of NFA on Nrf-2 expression in colorectal cancer cells. HCT-116 cells were treated with 10 µM NFA and tBHQ and/or MMF for 4 h, and Nrf-2 levels were analyzed by western blotting and ELISA. […] (B) Nrf-2 expression levels were evaluated with an ELISA after incubation with NFA with different carbon chain lengths and Michael acceptor positions. […]

HCT-116 cells = assay: WST-1 cell viability assay, HCT-116; assay type: cell-based, human; conditions: WST-1 cell viability, 24 h, n.i. = no inhibition observed
Description: (§2) Cell viability was analyzed with the WST-1 assay based on the cleavage of the stable tetrazolium salt WST-1 by the mitochondrial reductase system. Cells were seeded in the appropriate densities in a clear 96-well plate and settled overnight at 37°C in 5% CO2. The next day, the cells were treated with NFA or the substances of interest (≤0.1% dimethyl sulfoxide [DMSO]) and incubated for 24 or 48 h at 37°C in 5% CO2. Cell viability was analyzed by adding 10 µl WST-1 solution (Roche, Basel, Switzerland) and subsequently incubating the cells at 37°C for another 30–40 min. Absorbance was measured at 450 nm with a control wavelength at 620 nm using a plate reader.
(§3) Besides targeting the NF-κB pathway, the anti-tumorigenic effects of NFA can be observed by a reduction of colorectal cancer cell viability. […] Again, the cytotoxic effects of NFA were determined in HCT-116 and HT-29 colorectal cancer cells in the present study. […] HCT-116 cells were treated with increasing concentrations of NFA differing in chain length and Michael acceptor position for 24 h, and cell viability was determined using the WST-1 assay. Due to their prolonged cell division rate and their lack of sensitivity towards NFA ([Kühn et al., 2018]), HT-29 cells were treated for 48 h to gain improved NFA activity.

HT-29 cells = assay: WST-1 cell viability assay, HT-29; assay type: cell-based, human; conditions: n.i. = no inhibition observed
Description: as §2, §3

5-LO = molecular target: T1, 5-LO (Homo sapiens, UniProt P09917); assay: 5-LO product formation (LTB4, 5-HETE) in intact PMNL, A23187 + 20 µM AA; assay type: cell-based; conditions: 10 µM, A23187 2.5 µM + 20 µM AA (data not shown)
T1 construct: endogenous in cells; host or cells: human PMNL from buffy coats
T1 sequence (P09917 1-674): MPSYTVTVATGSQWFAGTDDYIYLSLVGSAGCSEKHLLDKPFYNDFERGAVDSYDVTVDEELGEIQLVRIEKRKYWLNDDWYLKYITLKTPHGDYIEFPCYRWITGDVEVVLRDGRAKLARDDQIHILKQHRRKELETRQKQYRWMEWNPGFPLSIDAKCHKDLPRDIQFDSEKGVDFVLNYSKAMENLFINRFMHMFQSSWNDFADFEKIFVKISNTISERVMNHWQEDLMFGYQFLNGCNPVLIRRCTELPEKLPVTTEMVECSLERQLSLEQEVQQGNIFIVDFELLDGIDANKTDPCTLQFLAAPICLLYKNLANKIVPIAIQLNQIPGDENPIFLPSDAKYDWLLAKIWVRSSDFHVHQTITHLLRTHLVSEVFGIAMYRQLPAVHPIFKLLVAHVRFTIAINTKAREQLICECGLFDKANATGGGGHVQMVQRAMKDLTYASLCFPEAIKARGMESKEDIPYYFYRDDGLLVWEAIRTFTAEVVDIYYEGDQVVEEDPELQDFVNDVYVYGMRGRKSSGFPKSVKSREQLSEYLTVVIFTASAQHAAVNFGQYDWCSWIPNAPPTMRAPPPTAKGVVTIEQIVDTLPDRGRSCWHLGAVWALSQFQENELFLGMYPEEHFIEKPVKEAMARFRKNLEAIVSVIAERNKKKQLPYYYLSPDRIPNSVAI
Description: Buffy coats from different donors of different blood types were commercially obtained from DRK Blutspendedienst Baden-Württemberg Institute Frankfurt. Donors have given their written consent. […] Following separation, the supernatant was transferred very gently to new 50-ml tubes containing lymphocyte separation medium (LSM) and centrifuged for 10 min at 800 ×g at RT with the centrifuge brake turned off. Afterwards, the supernatant was decanted carefully to discard the platelets and monocytes. The PMNL were washed with 1× PBS before the residual erythrocytes were lysed in two cycles: the cell pellet was resuspended with 10 ml H2O and vortexed for 45 s, and lysis was stopped with 40 ml 1 × PBS. After 10-min centrifugation at 200 ×g at RT, the cycle was repeated once. The supernatant was aspirated, the cell pellet resuspended in 5 ml PBS/glucose and initially separated PMNL preparations with different blood types were finally pooled to gain a sufficient number of cells. […] The enzyme was diluted in PBS/EDTA/ATP, transferred into 5-ml glass tubes, and stored on ice. […] The reaction was stopped by placing the glass tubes on ice. The supernatants were transferred to 1.5 ml reaction tubes and stored at −80°C before LC-MS (liquid chromatography and mass spectrometry) analysis of LTB4 and HETEs as described in 2.6 at the Institute of Pharmacology, Goethe University, University Hospital, Germany. The lipid mediators LTB4, hydroxyeicosatetraenoic acids, 5(S)-HETE, 12(S)-HETE, 15(S)-HETE and 20-HETE were analyzed using liquid chromatography tandem-mass spectroscopy (LC-MS/MS). The LC-MS/MS system consisted of a 5500 QTrap mass spectrometer (Sciex, Darmstadt, Germany), operating in negative ESI mode, an Agilent 1200 HPLC system (Agilent, Waldbronn, Germany) and an HTC Pal autosampler (Chromtech, Idstein, Germany). Sample extraction of LTB4 and HETEs were performed using liquid-liquid extraction: 200 µl of the sample were gently mixed with 20 µl of methanol and 20 µl of internal standard solution and extracted twice with 600 µl ethyl acetate. […] Working solutions of all analytes were prepared in methanol containing 0.1% BHT. The calibration standards were prepared by further dilution of the working standards. […] The residues were reconstituted in 50 µl of methanol:water:BHT (50:50:10^−4, v/v/v) prior to injection into the LC-MS/MS system. Chromatographic separation was achieved using a Gemini NX C18 column (150 mm × 2 mm ID, 5 µm, Phenomenex, Aschaffenburg, Germany) with a precolumn of the same material. A linear gradient was employed at a flow rate of 0.5 ml/min and a total run time of 17.5 min. Mobile phases were A water:ammonia (100:0.05, v/v) and B acetonitrile:ammonia (100:0.05, v/v). […] All data were acquired using Analyst software v1.6.2 and quantitation was performed by MultiQuant software v3.0 (both Sciex, Darmstadt, Germany) using the internal standard method (isotope-dilution mass spectrometry). Calibration curves were calculated by linear regression with 1/x.

Structure (SMILES): CC(C)C[C@@H](C=O)NC(=O)[C@H](CC(C)C)NC(=O)[C@H](CC(C)C)NC(=O)OCc1ccccc1 [MG132, reference compound] (Cbz-Leu-Leu-Leu-aldehyde)
inhibition at 1 µM (NF-κB p65): ~90%

Structure (SMILES): COC(=O)/C=C/C(=O)O [MMF, monomethyl fumarate]
induction of Nrf-2 (protein levels / signaling) (Nrf-2): increase

IC50 (HCT-116 cells; Homo sapiens, HCT-116): 4.2 ± 1.2 µM
IC50 (HT-29 cells; Homo sapiens, HT-29, 48 h): 10.3 ± 1.1 µM
Structure (SMILES): CC1=CC(=O)C(C(C)C)=CC1=O [TQ, thymoquinone, reference compound]
HCT-116 (24 h) IC50 (HCT-116 cells): suppressed HCT-116 and HT-29 cell viability effectively
HT-29 (48 h) IC50 (HT-29 cells): suppressed HCT-116 and HT-29 cell viability effectively

inhibition of 5-LO product formation in PMNL (5-LO): > 90%
Structure (SMILES): COc1ccc2c(c1)CC[C@@H]1[C@@H]2CC[C@]2(C)[C@@H](NCCCCCCN3C(=O)C=CC3=O)CC[C@@H]12 [U73122, reference compound]

Structure (SMILES): CC(C)(C)c1cc(O)ccc1O [tBHQ, tert-butylhydroquinone]
induction of Nrf-2 (protein levels / signaling) (Nrf-2): increase

From paper PMC8637440, “Structural Modifications Yield Novel Insights Into the Intriguing Pharmacodynamic Potential of Anti-inflammatory Nitro-Fatty Acids” (Frontiers in Pharmacology, 2021)
